Assay results from EPA's ToxRefDB 2.

Experiments:
rat = conditions: Combined chronic toxicity/carcinogenicity, wistar, Oral, Feed, dose end: 104 week
rabbit [1] = conditions: Prenatal developmental toxicity study, new zealand white, Oral, Gavage/Intubation, dose end: 18 GD
dog [2] = conditions: Chronic toxicity, beagle, Oral, Feed, dose end: 104 week
rabbit [3] = conditions: Prenatal developmental toxicity study, new zealand white, Oral, Gavage/Intubation, dose end: 28 GD
rabbit [4] = conditions: Prenatal developmental toxicity study, new zealand white, Oral, Gavage/Intubation, dose end: 28 GD; remark: listed apart in the source
dog [5] = conditions: Prenatal developmental toxicity study, beagle, Oral, Feed, dose end: 56 GD
[6] = group: cholinesterase, cholinesterase / cholinesterase / cholinesterase / plasma cholinesterase (che)
[7] = group: systemic, systemic / hematology / erythrocyte (rbc) count differential / erythrocyte (rbc) + systemic / hematology / reticulocyte / reticulocyte + …
[8] = group: cholinesterase, cholinesterase / cholinesterase / cholinesterase / cholinesterase (che)
[9] = group: developmental, developmental / developmental malformation / liver / discolored
[10] = group: maternal, systemic / in life observation / body weight / body weight + systemic / in life observation / body weight / body weight gain
[11] = group: systemic, systemic / in life observation / food consumption / food consumption + systemic / in life observation / clinical signs / hindlimb strength…
[12] = group: developmental, developmental / developmental malformation / trunk / omphalocele + systemic / in life observation / body weight / fetal weight
[13] = group: maternal, reproductive / reproductive performance / resorptions / resorptions + systemic / in life observation / body weight / body weight + systemic…
[14] = group: developmental, developmental / developmental malformation / bone / delayed ossification + developmental / developmental malformation / bone / hemicentric…
[15] = group: maternal, systemic / in life observation / body weight / body weight gain + systemic / in life observation / food consumption / food consumption
[16] = group: maternal, systemic / in life observation / body weight / body weight gain + systemic / in life observation / food consumption / food consumption + …
[17] = group: developmental, developmental / offspring survival late / [other] / [other] + systemic / in life observation / body weight / offspring (pup) weight
[18] = group: maternal, reproductive / offspring survival early / dead fetuses / dead fetuses

CNC(=O)Oc1cc(C)c(SC)c(C)c1 [Methiocarb]
LEL (rat; [6]): 30 mg/kg/day
LOAEL (rat; [6]): > 30 mg/kg/day
NEL (rat; [6]): 10 mg/kg/day
NOAEL (rat; [6]): ≥ 30 mg/kg/day
LOAEL (rat; group: systemic, systemic / hematology / erythrocyte (rbc) count differential / erythrocyte (rbc)): 10 mg/kg/day
LEL (rat; group: systemic, systemic / hematology / erythrocyte (rbc) count differential / erythrocyte (rbc) + systemic / hematology / reticulocyte / reticulocyte): 10 mg/kg/day
NEL (rat; [7]): 3.4 mg/kg/day
NOAEL (rat; [7]): 3.4 mg/kg/day
LEL (rabbit [1]; [8]): 10 mg/kg/day
LOAEL (rabbit [1]; [8]): 10 mg/kg/day
NEL (rabbit [1]; [8]): 3 mg/kg/day
NOAEL (rabbit [1]; [8]): 3 mg/kg/day
LEL (rabbit [1]; [9]): 10 mg/kg/day
LOAEL (rabbit [1]; [9]): > 10 mg/kg/day
NEL (rabbit [1]; [9]): 3 mg/kg/day
NOAEL (rabbit [1]; [9]): ≥ 10 mg/kg/day
LEL (rabbit [1]; [10]): 10 mg/kg/day
LOAEL (rabbit [1]; [10]): 10 mg/kg/day
NEL (rabbit [1]; [10]): 3 mg/kg/day
NOAEL (rabbit [1]; [10]): 3 mg/kg/day
LEL (dog [2]; [6]): 0.75 mg/kg/day
LOAEL (dog [2]; [6]): 0.75 mg/kg/day
NEL (dog [2]; [6]): < 0.75 mg/kg/day
NOAEL (dog [2]; [6]): < 0.75 mg/kg/day
LOAEL (dog [2]; group: systemic, systemic / in life observation / clinical signs / tremors): 12 mg/kg/day
LEL (dog [2]; group: systemic, systemic / in life observation / food consumption / food consumption): 3 mg/kg/day
NEL (dog [2]; [11]): 0.75 mg/kg/day
NOAEL (dog [2]; [11]): 3 mg/kg/day

O.O.[Cu] [Copper(II) hydroxide]
LEL (rabbit [3]; [12]): 30 mg/kg/day
LOAEL (rabbit [3]; [12]): > 30 mg/kg/day
NEL (rabbit [3]; [12]): 15 mg/kg/day
NOAEL (rabbit [3]; [12]): ≥ 30 mg/kg/day
LOAEL (rabbit [3]; [13]): > 30 mg/kg/day
NEL (rabbit [3]; [13]): 7.5 mg/kg/day
NOAEL (rabbit [3]; [13]): ≥ 30 mg/kg/day
LEL (rabbit [3]; group: maternal, systemic / in life observation / body weight / body weight + systemic / in life observation / body weight / body weight gain + systemic / in…): 15 mg/kg/day
LEL (rabbit [4]; [14]): 18 mg/kg/day
LOAEL (rabbit [4]; [14]): 18 mg/kg/day
NEL (rabbit [4]; [14]): 9 mg/kg/day
NOAEL (rabbit [4]; [14]): 9 mg/kg/day
LEL (rabbit [4]; [15]): 9 mg/kg/day
LOAEL (rabbit [4]; [15]): 9 mg/kg/day
NEL (rabbit [4]; [16]): 6 mg/kg/day
NOAEL (rabbit [4]; [16]): 6 mg/kg/day

C1N2CN3CN1CN(C2)C3 [Methenamine]
LEL (dog [5]; [17]): 31 mg/kg/day
LOAEL (dog [5]; [17]): > 31 mg/kg/day
NEL (dog [5]; [17]): 15 mg/kg/day
NOAEL (dog [5]; [17]): ≥ 31 mg/kg/day
LEL (dog [5]; [18]): 31 mg/kg/day
LOAEL (dog [5]; [18]): > 31 mg/kg/day
NEL (dog [5]; [18]): 15 mg/kg/day
NOAEL (dog [5]; [18]): ≥ 31 mg/kg/day
